In brackets after ≈: the same amount, converted by molar mass.
Experiments:
Assay in all cases: MIC, microdilution broth method (NCCLS)
Type in all cases: cell-based
Conditions in all cases: 35° C., 16-20 hours
H. influenzae ATCC49247 = tested on: H. influenzae ATCC49247
Summary of the method: (§1)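 NCCLS microdilution method in cation-adjusted Mueller-Hinton broth, serial two-fold dilutions, final inoculum approximately 5×10^4 CFU/well. MIC read after 16-20 hours' incubation at 35° C.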

E. faecalis ATCC29212 = tested on: E. faecalis ATCC29212
Summary of the method: as §1

S. pneumoniae ATCC49619 = tested on: S. pneumoniae ATCC49619
Summary of the method: as §1

S. aureus ATCC29213 = tested on: S. aureus ATCC29213
Summary of the method: as §1

Row | SMILES | MIC (E: H. influenzae ATCC49247) (H. influenzae ATCC49247) [µg/mL] | MIC (C: E. faecalis ATCC29212) (E. faecalis ATCC29212) [µg/mL] | MIC (D: S. pneumoniae ATCC49619) (S. pneumoniae ATCC49619) [µg/mL] | MIC (B: S. aureus ATCC29213) (S. aureus ATCC29213) [µg/mL]
1 | CC[C@H]1OC(=O)[C@H](C)C(=O)[C@H](C)[C@@H](O[C@@H]2O[C@H](C)C[C@H](N(C)C)[C@H]2O)[C@](C)(OC(=O)NN=CCc2ccc(-c3ncccn3)cc2)C[C@@H](C)C(=O)[C@H](C)[C@H]2NC(=O)O[C@@]21C [Compound 826] | 8 (≈ 9.56 µM) | 2 (≈ 2.39 µM) | 0.25 (≈ 0.299 µM) | 8 (≈ 9.56 µM)
2 | CC[C@H]1OC(=O)[C@H](C)C(=O)[C@H](C)[C@@H](O[C@@H]2O[C@H](C)C[C@H](N(C)C)[C@H]2O)[C@](C)(OC(=O)NN=C/C=C/c2ccc(-c3ncccn3)cc2)C[C@@H](C)C(=O)[C@H](C)[C@H]2NC(=O)O[C@@]21C [Compound 827] | 8 (≈ 9.42 µM) | 1 (≈ 1.18 µM) | 0.12 (≈ 0.141 µM) | 1 (≈ 1.18 µM)
3 | CC[C@H]1OC(=O)[C@H](C)C(=O)[C@H](C)[C@@H](O[C@@H]2O[C@H](C)C[C@H](N(C)C)[C@H]2O)[C@](C)(OC(=O)SC/C=C/c2ccccc2)C[C@@H](C)C(=O)[C@H](C)[C@H]2NC(=O)O[C@@]21C [Compound 830] | 4 (≈ 5.16 µM) | 0.5 (≈ 0.645 µM) | 0.12 (≈ 0.155 µM) | 1 (≈ 1.29 µM)
4 | C=CCSC(=O)O[C@]1(C)C[C@@H](C)C(=O)[C@H](C)[C@H]2NC(=O)O[C@]2(C)[C@@H](CC)OC(=O)[C@H](C)C(=O)[C@H](C)[C@H]1O[C@@H]1O[C@H](C)C[C@H](N(C)C)[C@H]1O [Compound 832] | 8 (≈ 11.4 µM) | 0.5 (≈ 0.715 µM) | 0.25 (≈ 0.358 µM) | 4 (≈ 5.72 µM)
5 | CC[C@H]1OC(=O)[C@H](C)C(=O)[C@H](C)[C@@H](O[C@@H]2O[C@H](C)C[C@H](N(C)C)[C@H]2O)[C@](C)(OC(=O)SC/C=C/c2ccc(-c3ncccn3)cc2)C[C@@H](C)C(=O)[C@H](C)[C@H]2NC(=O)O[C@@]21C [Compound 833] | 16 (≈ 18.8 µM) | 0.25 (≈ 0.293 µM) | 0.06 (≈ 0.0703 µM) | 0.5 (≈ 0.586 µM)
6 | CC[C@H]1OC(=O)[C@H](C)C(=O)[C@H](C)[C@@H](O[C@@H]2O[C@H](C)C[C@H](N(C)C)[C@H]2O)[C@](C)(OC(=O)SC/C=C/c2cnc3ccccc3c2)C[C@@H](C)C(=O)[C@H](C)[C@H]2NC(=O)O[C@@]21C [Compound 837] | 8 (≈ 9.68 µM) | 0.25 (≈ 0.303 µM) | 0.12 (≈ 0.145 µM) | 2 (≈ 2.42 µM)
7 | CC[C@H]1OC(=O)[C@H](C)C(=O)[C@H](C)[C@@H](O[C@@H]2O[C@H](C)C[C@H](N(C)C)[C@H]2O)[C@](C)(OC(=O)SCc2cnc3ccccc3c2)C[C@@H](C)C(=O)[C@H](C)[C@H]2NC(=O)O[C@@]21C [Compound 838] | 1 (≈ 1.25 µM) | 0.12 (≈ 0.15 µM) | 0.06 (≈ 0.075 µM) | 0.25 (≈ 0.313 µM)
8 | CC[C@H]1OC(=O)[C@H](C)C(=O)[C@H](C)[C@@H](O[C@@H]2O[C@H](C)C[C@H](N(C)C)[C@H]2O)[C@](C)(OC(=O)SCc2ccc(-c3ccccn3)s2)C[C@@H](C)C(=O)[C@H](C)[C@H]2NC(=O)O[C@@]21C [Compound 839] | 2 (≈ 2.4 µM) | 0.12 (≈ 0.144 µM) | 0.06 (≈ 0.0721 µM) | 1 (≈ 1.2 µM)
9 | CC[C@H]1OC(=O)[C@H](C)C(=O)[C@H](C)[C@@H](O[C@@H]2O[C@H](C)C[C@H](N(C)C)[C@H]2O)[C@](C)(OC(=O)SCc2cn(-c3ncccn3)cn2)C[C@@H](C)C(=O)[C@H](C)[C@H]2NC(=O)O[C@@]21C [Compound 841] | 2 (≈ 2.45 µM) | 0.12 (≈ 0.147 µM) | 0.03 (≈ 0.0367 µM) | 0.5 (≈ 0.612 µM)
10 | CC[C@H]1OC(=O)[C@H](C)C(=O)[C@H](C)[C@@H](O[C@@H]2O[C@H](C)C[C@H](N(C)C)[C@H]2O)[C@](C)(OC(=O)Cc2ccccc2)C[C@@H](C)C(=O)[C@H](C)[C@H]2NC(=O)O[C@@]21C [Compound 843] | 16 (≈ 22.3 µM) | 2 (≈ 2.79 µM) | 0.5 (≈ 0.697 µM) | 8 (≈ 11.2 µM)
11 | CC[C@H]1OC(=O)[C@H](C)C(=O)[C@H](C)[C@@H](O[C@@H]2O[C@H](C)C[C@H](N(C)C)[C@H]2O)[C@](C)(OC(=O)CCCc2ccccc2)C[C@@H](C)C(=O)[C@H](C)[C@H]2NC(=O)O[C@@]21C [Compound 844] | 4 (≈ 5.37 µM) | 0.12 (≈ 0.161 µM) | 0.03 (≈ 0.0403 µM) | 0.5 (≈ 0.671 µM)
12 | CC[C@H]1OC(=O)[C@H](C)C(=O)[C@H](C)[C@@H](O[C@@H]2O[C@H](C)C[C@H](N(C)C)[C@H]2O)[C@](C)(OC(=O)n2ccc(C(=N)Cc3ccccc3)c2)C[C@@H](C)C(=O)[C@H](C)[C@H]2NC(=O)O[C@@]21C [Compound 845] | >16 | >16 | 4 (≈ 4.94 µM) | >16

Other lines, results leading:

Row | MIC (E: H. influenzae ATCC49247) (H. influenzae ATCC49247) [µg/mL] | MIC (C: E. faecalis ATCC29212) (E. faecalis ATCC29212) [µg/mL] | MIC (D: S. pneumoniae ATCC49619) (S. pneumoniae ATCC49619) [µg/mL] | MIC (B: S. aureus ATCC29213) (S. aureus ATCC29213) [µg/mL] | SMILES
13 | 8 (≈ 10.7 µM) | 0.25 (≈ 0.334 µM) | 0.06 (≈ 0.0801 µM) | 2 (≈ 2.67 µM) | CC[C@H]1OC(=O)[C@H](C)C(=O)[C@H](C)[C@@H](O[C@@H]2O[C@H](C)C[C@H](N(C)C)[C@H]2O)[C@](C)(OC(=O)SCc2ccccc2)C[C@@H](C)C(=O)[C@H](C)[C@H]2NC(=O)O[C@@]21C [Compound 831]
14 | 8 (≈ 9.67 µM) | 0.12 (≈ 0.145 µM) | <0.015 | 0.5 (≈ 0.605 µM) | CC[C@H]1OC(=O)[C@H](C)C(=O)[C@H](C)[C@@H](O[C@@H]2O[C@H](C)C[C@H](N(C)C)[C@H]2O)[C@](C)(OC(=O)SCc2ccc(-c3ncccn3)cc2)C[C@@H](C)C(=O)[C@H](C)[C@H]2NC(=O)O[C@@]21C [Compound 834]
15 | 4 (≈ 4.76 µM) | 0.12 (≈ 0.143 µM) | 0.03 (≈ 0.0357 µM) | 0.5 (≈ 0.595 µM) | CC[C@H]1OC(=O)[C@H](C)C(=O)[C@H](C)[C@@H](O[C@@H]2O[C@H](C)C[C@H](N(C)C)[C@H]2O)[C@](C)(OC(=O)SCCc2ccc(-c3ncccn3)cc2)C[C@@H](C)C(=O)[C@H](C)[C@H]2NC(=O)O[C@@]21C [Compound 835]
16 | 1 (≈ 1.2 µM) | 0.12 (≈ 0.145 µM) | 0.03 (≈ 0.0361 µM) | 0.25 (≈ 0.301 µM) | CC[C@H]1OC(=O)[C@H](C)C(=O)[C@H](C)[C@@H](O[C@@H]2O[C@H](C)C[C@H](N(C)C)[C@H]2O)[C@](C)(OC(=O)SCCc2ccc(-n3cncn3)cc2)C[C@@H](C)C(=O)[C@H](C)[C@H]2NC(=O)O[C@@]21C [Compound 836]
17 | 2 (≈ 2.45 µM) | 0.12 (≈ 0.147 µM) | 0.06 (≈ 0.0735 µM) | 0.5 (≈ 0.613 µM) | CC[C@H]1OC(=O)[C@H](C)C(=O)[C@H](C)[C@@H](O[C@@H]2O[C@H](C)C[C@H](N(C)C)[C@H]2O)[C@](C)(OC(=O)SCc2ccc(-n3cncn3)cc2)C[C@@H](C)C(=O)[C@H](C)[C@H]2NC(=O)O[C@@]21C [Compound 840]

— patent US6825170B2, “6-O-acyl ketolide antibacterials” (Ortho-McNeil Pharmaceutical, Inc., priority 2001, dated 2004)
